Peptide text beside a SMILES is read from it. * marks the point of attachment. Cbz = O=C(OCc1ccccc1)*
Legend:
Bcl-xL = target: T1, Bcl-xL (Mus musculus, UniProt Q64373); assay: Western blot of Bcl-xL degradation in NIH-3T3 cells; type: cell-based; conditions: for effect of pretreatment on SIAIS361034-induced Bcl-xL degradation: pretreated 2 h with ABT-263 1 µM, Pomalidomide 10 µM or MG132 1 µM, then SIAIS361034 24 h
T1 construct: endogenous in cells; host or cells: NIH-3T3
Protocol: (§1) Cells were lysed in cell lysis buffer (50 mM Tris pH 8.0, 150 mM NaCl, 10% glycerol, 1 mM EDTA, 50 mM NaF, and 0.1% NP-40) supplemented with protease and phosphatase inhibitors. Total protein extracts of tissues were generated in radioimmunoprecipitation (RIPA) assay lysis buffer containing complete protease and phosphatase inhibitor cocktail. Protein content was quantified using the Pierce BCA Protein Assay Kit (#23225, Thermo Fisher Scientific). The proteins were separated by SDS-PAGE, electrophoretically transferred to polyvinylidene difluoride (PVDF) blotting membranes (#LC2002, Thermo Fisher Scientific), and subjected to routine immunoblot analysis with primary antibodies as follows: anti-Bcl-2 (#15071), anti-Mcl-1 (#94296), anti-VHL (#68547), anti-CRBN (#71810), and anti-Sufu (#2522) were obtained from Cell Signaling Technology (Danvers, Massachusetts, USA); anti-Bcl-xL (#ab32370), anti-Gli1 (#ab134906), and anti-Smoothened (#ab236465) were obtained from Abcam (Cambridge, CB2 0AX, UK); anti-GAPDH (#60004-1-Ig) and anti-β-tubulin (#10094-1-AP) were purchased from Proteintech Group, Inc. (Rosemont, IL 60018, USA). The results were quantified by densitometry using ImageJ software (NIH).

platelets = assay: Platelet toxicity assay in C57BL/6J mice; type: in vivo, mouse; conditions: SIAIS361034 single i.p. 50 and 100 mg/kg, ABT-263 single p.o. 100 mg/kg, 8 h and 24 h
From the text: Blood was collected at different time points via retro-orbital bleeding in anticoagulation tube. Platelets or different blood cells were enumerated using BM800 blood analyzer (Bowlinman Sunshine).

NF-κB signaling pathway = assay: NF-κB luciferase reporter assay in 293T cells; type: cell-based; conditions: TNF-α 10 ng/mL, 6 h, SIAIS361034 10 μM, BAY 11-7082 20 μM
Protocol: (§2) Cells seeded in 96-well plates were treated with various treatments as indicated. The luciferase activity in the cell lysates was measured using Dual-Luciferase Reporter Assay System (Promega, Madison, WI, USA) according to the manufacturer's instructions in a luminometer (Molecular Devices, Sunnyvale, CA). The firefly luciferase values were normalized to Renilla values. […]
Data represent mean ± SD (n = 3). (B) NF-κB luciferase analysis of the effect of SIAIS361034 on NF-κB signaling pathway in 293T cells.The 293T cells were transfected with NF-κB luciferase reporter and Renilla-TK plasmids and […]
μM) for 6 h. Data represent mean ± SD (n = 3). […]
(§3) Data represent mean ± SD (n = 3).
(§4) (1 picture or pasted object on this page, not shown here)

[1] = system: bone growth of young mice; assay: Bone growth of young mice (body weight, Micro-CT, H&E, IHC); type: in vivo, mouse; conditions: for body size: 5-week-old mice after treatment from P12 to P16; for femur length (Micro-CT, in words): mice at 6 weeks of age, treated P12 to P16; for levels of Bcl-xL in femurs (IHC): mice treated P12 to P16; for expression levels of Gli1 in femurs (IHC): mice treated P12 to P16, compared with Vehicle
Protocol: Skeleton Micro-CT images of mice were taken under anesthesia. The femurs were fixed and stored in 4% PFA at 4 °C. Mice and femurs were scanned using Inveon PET-CT (Siemens). Bone tissues were computed with Inveon Acquisition Workplace (IAW). Image data were visualized and analyzed by Inveon Viewer.
Femurs were fixed in 4% PFA and decalcified in 14% EDTA for 2 weeks at 4 °C. Bone tissues were embedded in paraffin. Thin sections were stained with hematoxylin and eosin (H&E) according to the manufacturer's instructions. For immunohistochemistry (IHC), paraffin-embedded sections of femurs were baked at 60 °C for 20 min, deparaffinized by xylene for 25 min, rehydrated through ethanol series, and incubated with citrate buffer at 95 °C for 20 min for antigen retrieval. Sections were incubated with the primary antibodies as indicated overnight at 4 °C, followed by goat anti-rabbit secondary antibody. The primary antibodies used in this study include Bcl-xL (1:2000, ab178844, Abcam) and Gli1 (1:100, 101156-T10, Sino Biological).

[2] = system: Hh pathway (Gli-luciferase) provoked by Smo WT / Smo mutants; assay: Dual luciferase reporter assay, Hh activity induced by ectopic Smo WT or Smo mutants in light II cells; type: cell-based; conditions: Smo WT, D473H, H231R, W281C, W535L, L412F, F460L, GDC-0449 10 μM (Figure S3B-D)
From the text: (§5) The TCF/LEF luciferase reporter plasmid, NF-κB luciferase reporter plasmid, and TK-Renilla luciferase plasmid were purchased from Promega (Madison, WI, USA). Smo plasmid was purchased from Origene (Rockville, MD, USA). The Smo mutant plasmids were generated from wild type Smo plasmid using QuickChange Site-Directed Mutagenesis kit from Agilent (Santa Clara, CA, USA) and confirmed by sequencing. Information on Smo mutants plasmids is provided in Supplementary data 2. The Gli1 plasmid and Gli2-HA plasmid were obtained from Addgene (Cambridge, MA, USA). Transient transfections were performed by Lipofectamine 2000 reagent from Invitrogen (Grand Island, NY, USA) according to the manufacturer's instructions.
(§6) Cells seeded in 96-well plates were treated with various treatments as indicated. The luciferase activity in the cell lysates was measured using Dual-Luciferase Reporter Assay System (Promega, Madison, WI, USA) according to the manufacturer's instructions in a luminometer (Molecular Devices, Sunnyvale, CA). The firefly luciferase values were normalized to Renilla values.

[3] = system: Hh pathway (Gli-luciferase) provoked by Gli2; assay: Dual luciferase reporter assay, Hh activity initiated by ectopic Gli2-HA in light II cells; type: cell-based; conditions: for IC50: ectopic Gli2-HA, 36 h
From the text: as §5, §6

[4] = system: hair growth and Hh pathway activity in skin; assay: Depilatory mouse model; type: in vivo
Protocol: For Depilatory model studies, male C57BL/6J mice (7 to 8 weeks of age) were purchased from Shanghai Lingchang Biotechnology Co. (Shanghai, China). After 2 days of acclimation, only healthy mice were used in the experiment. The back skin of the anesthetized mice was shaved and depilated using the depilatory Nair (Church & Dwight Co., Inc.). After 4 days, the depilated mice were randomized into groups for treatments as indicated. The back skin phenotypes were recorded by taking pictures every 3 days. Skin tissues were harvested 6 h after the last dosage to examining Gli1 mRNA expression as well as Gli1 and Bcl-xL protein levels.

[5] = system: SmoA1 (Smo W539L) medulloblastoma tumor; assay: SmoA1 medulloblastoma allograft in nude mice; type: in vivo, mouse
From the text: For in vivo SmoA1 MB allograft studies, SmoA1 spontaneous MB tumors were obtained from ND2:SmoA1 transgenic mice as previously described. Male nude mice (4 to 5 weeks of age) were purchased from Shanghai Lingchang Biotechnology Co. (Shanghai, China). Spontaneous tumors were harvested and subcutaneously allografted into nude mice. When the tumor volumes reached approximately 2000 mm^3, they were harvested and further subcutaneously allografted into nude mice. When the tumor volumes reached about 150 to 200 mm^3, the tumor-bearing mice were randomly assigned into vehicle and treatment groups. Mice were weighed every 3 days. Tumor size was measured once every 3 days using microcaliper. Tumor volume (V) was determined using the following formula: V = (L×W^2) ×0.5, where L is length, and W is width in mm. Tumor tissues were harvested 6 h after the last dosage to examining Gli1 mRNA expression and protein levels. SIAIS361034 for i.p. administration was formulated in 0.5% sodium carboxymethyl cellulose (CMC-Na). All in vivo studies above were approved by and conformed to the policies and regulations of the Animal Care and Use Committee of Fudan University, China.

[6] = system: medulloblastoma sensitive to Smo inhibitors; parameters: method as in PMID 19716296; conditions: GDC-0449 50 mg/kg; cited from earlier work
Wnt signaling pathway = assay: TCF/LEF luciferase reporter assay in LS174T cells; type: cell-based; conditions: PGE2 1 μM, 24 h, SIAIS361034 10 μM, H-89 20 μM
Protocol: as §2
μM) for 6 h. Data represent mean ± SD (n = 3). (C) TCF/LEF luciferase analysis of the effect of SIAIS361034 on Wnt signaling pathway in LS174T cells. The LS174T cellswere transfected with TCF/LEF luciferase reporter and Renilla-TK plasmids and […]
as §3, §4

Gli1 = assay: Western blot of Gli1 in light II cells; type: cell-based; conditions: 1 µM
Protocol: as §1

[7] = system: Hh pathway (Gli-luciferase) in light II cells; assay: Dual luciferase reporter assay, Gli-luciferase provoked by SAG in light II cells; type: cell-based; conditions: SAG 100 nM; for effect of pretreatment on Gli-luciferase activity suppressed by SIAIS361034: pretreated 2 h with MG132 1 µM or Pomalidomide 10 µM, then SIAIS361034 1 µM
Protocol: as §6

T1 sequence (Q64373 whole entry): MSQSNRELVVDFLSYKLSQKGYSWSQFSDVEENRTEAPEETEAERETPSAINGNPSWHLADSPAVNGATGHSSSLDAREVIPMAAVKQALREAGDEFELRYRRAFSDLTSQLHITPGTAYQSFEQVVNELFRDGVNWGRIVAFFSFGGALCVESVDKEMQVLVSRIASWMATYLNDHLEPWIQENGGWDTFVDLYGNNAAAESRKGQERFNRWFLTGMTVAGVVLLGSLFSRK

In the case of `CC1(C)CCC(c2ccc(Cl)cc2)=C(CN2CCN(c3ccc(C(=O)NS(=O)(=O)c4ccc(N[C@H](CCN5CCOCC5)CSc5ccccc5)c(S(=O)(=O)C(F)(F)F)c4)cc3)CC2)C1` [ABT-263, reference compound], the “effect of pretreatment on SIAIS361034-induced Bcl-xL degradation” value (Bcl-xL) is reported as “abolished the SIAIS361034-induced Bcl-xL degradation” and the number of platelets (platelets) is reported as “severe thrombocytopenia”.
With `Cc1ccc(S(=O)(=O)/C=C/C#N)cc1` [BAY 11-7082, reference compound] the “NF-κB luciferase activity activated by TNF-α” value (NF-κB signaling pathway) was “significantly impeded”.
For `Cc1ncsc1-c1ccc([C@H](C)NC(=O)[C@@H]2C[C@@H](O)CN2C(=O)[C@@H](NC(=O)CCCCCC(=O)N2CCN(CC[C@H](CSc3ccccc3)Nc3ccc(S(=O)(=O)NC(=O)c4ccc(N5CCN(CC6=C(c7ccc(Cl)cc7)CCC(C)(C)C6)CC5)cc4)cc3S(=O)(=O)C(F)(F)F)CC2)C(C)(C)C)cc1` [DT2216], the body size [1] was “smaller body sizes”, the “femur length (Micro-CT, in words)” value [1] was “obvious shortening of the femur” and the “levels of Bcl-xL in femurs (IHC)” value [1] was “reduced”. For the same compound, the “expression levels of Gli1 in femurs (IHC)” value [1] was “significantly suppressed” and the “rate of weight growth” value ([1]; young mice treated from P12 to P16) was “decelerated the rate of weight growth”.
With `CS(=O)(=O)c1ccc(C(=O)Nc2ccc(Cl)c(-c3ccccn3)c2)c(Cl)c1` [GDC-0449, reference compound] the “Hh activity provoked by wild type Smo and Smo mutants” value [2] was “little appreciable effect”, the “Hh activity evoked by ectopic expression of Gli2” value [3] was “no effect” and the IC50 [3] was over 10 µM. For the same compound, the “hair growth during depilation-induced hair regeneration” value ([4]; male C57BL/6J mice, administered after 4 days of depilation) was “significantly retarded hair growth”, the “Gli1 and Bcl-xL protein levels in skin tissues” value ([4]; skin harvested 6 h after the last dosage, western blot) was “no effect on the levels of Bcl-xL” and the “growth of SmoA1 tumors” value ([5]; nude mice, SIAIS361034 50 mg/kg, GDC-0449 50 mg/kg p.o.) was “obvious resistance”. For the same compound, the “expression of Gli1 mRNA in tumor tissues” value ([5]; tumors harvested 6 h after the last dosage, RT-qPCR) was “no alteration”, the body size [1] was “smaller body sizes” and the “femur length (Micro-CT, in words)” value [1] was “obvious shortening of the femur”. For the same compound, the “levels of Bcl-xL in femurs (IHC)” value [1] was “No change”, the “expression levels of Gli1 in femurs (IHC)” value [1] was “significantly suppressed” and the TGI [6] was 100%.
With `O=S(=O)(NCCNC/C=C/c1ccc(Br)cc1)c1cccc2cnccc12` [H-89, reference compound] the “TCF/LEF luciferase activity (Wnt signaling) activated by PGE2” value (Wnt signaling pathway) was “significantly inhibited”.
In the case of `Cc1sc2c(c1C)C(c1ccc(Cl)cc1)=N[C@@H](CC(=O)OC(C)(C)C)c1nnc(C)n1-2` [JQ1, reference compound], the Gli1 protein level (Gli1) is reported as “reduced Gli1 protein”.
In the case of `CC(C)C[C@@H](C=O)NC(=O)[C@H](CC(C)C)NC(=O)[C@H](CC(C)C)NC(=O)OCc1ccccc1` [MG132, reference compound] (Cbz-Leu-Leu-Leu-aldehyde), the “effect of pretreatment on SIAIS361034-induced Bcl-xL degradation” value (Bcl-xL) is reported as “obviously abolished SIAIS361034-induced Bcl-xL degradation” and the “effect of pretreatment on Gli-luciferase activity suppressed by SIAIS361034” value [7] is reported as “abolished the suppressed Gli-luciferase activity”.
With `Nc1cccc2c1C(=O)N(C1CCC(=O)NC1=O)C2=O` (centres unmarked) [Pomalidomide, reference compound] the “effect of pretreatment on SIAIS361034-induced Bcl-xL degradation” value (Bcl-xL) was “obviously abolished SIAIS361034-induced Bcl-xL degradation” and the “effect of pretreatment on Gli-luciferase activity suppressed by SIAIS361034” value [7] was “abolished the suppressed Gli-luciferase activity”.
In the case of `CN1C(=O)CCC(N2Cc3c(C#CCCCN4CCN(CCCNc5ccc(S(=O)(=O)NC(=O)c6ccc(N7CCN(CC8=C(c9ccc(Cl)cc9)CCC(C)(C)C8)CC7)cc6)cc5S(=O)(=O)C(F)(F)F)CC4)cccc3C2=O)C1=O` (centres unmarked) [SIAIS361034NC], the Bcl-xL degradation (Bcl-xL; 1 µM, western blot) is reported as “failed to degrade Bcl-xL”, the IC50 ([7]; 36 h, read-out: IC50 value inhibiting the Gli-luciferase activity provoked by SAG) is reported as 3.16 µM and the IC50 [3] is reported as 1.77 µM.
